# In paper PMC5622171 (Nature Communications, 2017):
# What was measured:
# Test in all cases: KINOMEscan kinase profiling
# Format in all cases: binding
# [1] = target: T1, BLK (Homo sapiens, UniProt P51451); details: read-out: %Inhibition by 10 μM SPA70
# T1 construct: purchased DiscoverX (Ambit Biosciences) KINOMEscan
# In short: (§1)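 KINOMEscan profiling followed a published protocol. Kinases whose inhibition exceeded a set cut-off were then tested in a dilution series beginning at 30 µM.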
# [2] = target: T2, CDC2L1 (Homo sapiens, UniProt P21127); details: read-out: %Inhibition by 10 μM SPA70
# T2 construct: purchased DiscoverX (Ambit Biosciences) KINOMEscan
# In short: as §1
# [3] = target: T3, CDK4-cyclinD1 (Homo sapiens, UniProt P11802); details: read-out: %Inhibition by 10 μM SPA70
# T3 construct: purchased DiscoverX (Ambit Biosciences) KINOMEscan
# In short: as §1
# [4] = target: T4, CLK2 (Homo sapiens, UniProt P49760); details: read-out: %Inhibition by 10 μM SPA70
# T4 construct: purchased DiscoverX (Ambit Biosciences) KINOMEscan
# In short: as §1
# [5] = target: T5, CSNK1G2 (Homo sapiens, UniProt P78368)
# T5 construct: purchased DiscoverX (Ambit Biosciences) KINOMEscan
# In short: as §1
# [6] = target: T6, DAPK1 (Homo sapiens, UniProt P53355); details: read-out: %Inhibition by 10 μM SPA70
# T6 construct: purchased DiscoverX (Ambit Biosciences) KINOMEscan
# In short: as §1
# [7] = target: T7, DAPK2 (Homo sapiens, UniProt Q9UIK4); details: read-out: %Inhibition by 10 μM SPA70
# T7 construct: purchased DiscoverX (Ambit Biosciences) KINOMEscan
# In short: as §1
# [8] = target: T8, DCAMKL3 (Homo sapiens, UniProt Q9C098); details: read-out: %Inhibition by 10 μM SPA70
# T8 construct: purchased DiscoverX (Ambit Biosciences) KINOMEscan
# In short: as §1
# [9] = target: T9, EIF2AK1 (Homo sapiens, UniProt Q9BQI3); details: read-out: %Inhibition by 10 μM SPA70
# T9 construct: purchased DiscoverX (Ambit Biosciences) KINOMEscan
# In short: as §1
# [10] = target: T10, EPHA3 (Homo sapiens, UniProt P29320); details: read-out: %Inhibition by 10 μM SPA70
# T10 construct: purchased DiscoverX (Ambit Biosciences) KINOMEscan
# In short: as §1
# [11] = target: T11, EPHA4 (Homo sapiens, UniProt P54764); details: read-out: %Inhibition by 10 μM SPA70
# T11 construct: purchased DiscoverX (Ambit Biosciences) KINOMEscan
# In short: as §1
# [12] = target: T12, EPHB2 (Homo sapiens, UniProt P29323)
# T12 construct: purchased DiscoverX (Ambit Biosciences) KINOMEscan
# In short: as §1
# [13] = target: T13, EPHB4 (Homo sapiens, UniProt P54760); details: read-out: %Inhibition by 10 μM SPA70
# T13 construct: purchased DiscoverX (Ambit Biosciences) KINOMEscan
# In short: as §1
# [14] = target: T14, ERBB3 (Homo sapiens, UniProt P21860); details: read-out: %Inhibition by 10 μM SPA70
# T14 construct: purchased DiscoverX (Ambit Biosciences) KINOMEscan
# In short: as §1
# [15] = target: T15, ERK5 (Homo sapiens, UniProt Q13164); details: read-out: %Inhibition by 10 μM SPA70
# T15 construct: purchased DiscoverX (Ambit Biosciences) KINOMEscan
# In short: as §1
# [16] = target: T16, LATS1 (Homo sapiens, UniProt O95835); details: read-out: %Inhibition by 10 μM SPA70
# T16 construct: purchased DiscoverX (Ambit Biosciences) KINOMEscan
# In short: as §1
# [17] = target: T17, LCK (Homo sapiens, UniProt P06239); details: read-out: %Inhibition by 10 μM SPA70
# T17 construct: purchased DiscoverX (Ambit Biosciences) KINOMEscan
# In short: as §1
# [18] = target: T18, MAK (Homo sapiens, UniProt P20794); details: read-out: %Inhibition by 10 μM SPA70
# T18 construct: purchased DiscoverX (Ambit Biosciences) KINOMEscan
# In short: as §1
# [19] = target: T19, MAP3K15 (Homo sapiens, UniProt Q6ZN16); details: read-out: %Inhibition by 10 μM SPA70
# T19 construct: purchased DiscoverX (Ambit Biosciences) KINOMEscan
# In short: as §1
# [20] = target: T20, MARK1 (Homo sapiens, UniProt Q9P0L2); details: read-out: %Inhibition by 10 μM SPA70
# T20 construct: purchased DiscoverX (Ambit Biosciences) KINOMEscan
# In short: as §1
# [21] = target: T21, MEK1 (Homo sapiens, UniProt Q02750); details: read-out: %Inhibition by 10 μM SPA70
# T21 construct: purchased DiscoverX (Ambit Biosciences) KINOMEscan
# In short: as §1
# [22] = target: T22, MERTK (Homo sapiens, UniProt Q12866); details: read-out: %Inhibition by 10 μM SPA70
# T22 construct: purchased DiscoverX (Ambit Biosciences) KINOMEscan
# In short: as §1
# [23] = target: T23, MRCKA (Homo sapiens, UniProt Q5VT25); details: read-out: %Inhibition by 10 μM SPA70
# T23 construct: purchased DiscoverX (Ambit Biosciences) KINOMEscan
# In short: as §1
# [24] = target: T24, MST1R (Homo sapiens, UniProt Q04912); details: read-out: %Inhibition by 10 μM SPA70
# T24 construct: purchased DiscoverX (Ambit Biosciences) KINOMEscan
# In short: as §1
# [25] = target: T25, PAK6 (Homo sapiens, UniProt Q9NQU5); details: read-out: %Inhibition by 10 μM SPA70
# T25 construct: purchased DiscoverX (Ambit Biosciences) KINOMEscan
# In short: as §1
# [26] = target: T26, PDGFRA (Homo sapiens, UniProt P16234); details: read-out: %Inhibition by 10 μM SPA70
# T26 construct: purchased DiscoverX (Ambit Biosciences) KINOMEscan
# In short: as §1
# [27] = target: T27, PIM3 (Homo sapiens, UniProt Q86V86); details: read-out: %Inhibition by 10 μM SPA70
# T27 construct: purchased DiscoverX (Ambit Biosciences) KINOMEscan
# In short: as §1
# [28] = target: T28, PKAC-beta (Homo sapiens, UniProt P22694)
# T28 construct: purchased DiscoverX (Ambit Biosciences) KINOMEscan
# In short: as §1
# [29] = target: T29, PKN1 (Homo sapiens, UniProt Q16512); details: read-out: %Inhibition by 10 μM SPA70
# T29 construct: purchased DiscoverX (Ambit Biosciences) KINOMEscan
# In short: as §1
# [30] = target: T30, PRKCQ (Homo sapiens, UniProt Q04759); details: read-out: %Inhibition by 10 μM SPA70
# T30 construct: purchased DiscoverX (Ambit Biosciences) KINOMEscan
# In short: as §1
# [31] = target: T31, PRKD3 (Homo sapiens, UniProt O94806); details: read-out: %Inhibition by 10 μM SPA70
# T31 construct: purchased DiscoverX (Ambit Biosciences) KINOMEscan
# In short: as §1
# [32] = target: T32, RIPK4 (Homo sapiens, UniProt P57078); details: read-out: %Inhibition by 10 μM SPA70
# T32 construct: purchased DiscoverX (Ambit Biosciences) KINOMEscan
# In short: as §1
# [33] = target: T33, RSK1(Kin.Dom.1-N-terminal) (Homo sapiens, UniProt Q15418); details: read-out: %Inhibition by 10 μM SPA70
# T33 construct: RSK1(Kin.Dom.1-N-terminal); purchased DiscoverX (Ambit Biosciences) KINOMEscan
# In short: as §1
# [34] = target: T34, RSK3(Kin.Dom.1-N-terminal) (Homo sapiens, UniProt Q15349); details: read-out: %Inhibition by 10 μM SPA70
# T34 construct: RSK3(Kin.Dom.1-N-terminal); purchased DiscoverX (Ambit Biosciences) KINOMEscan
# In short: as §1
# [35] = target: T35, SIK2 (Homo sapiens, UniProt Q9H0K1); details: read-out: %Inhibition by 10 μM SPA70
# T35 construct: purchased DiscoverX (Ambit Biosciences) KINOMEscan
# In short: as §1
# [36] = target: T36, SNARK (Homo sapiens, UniProt Q9H093)
# T36 construct: purchased DiscoverX (Ambit Biosciences) KINOMEscan
# In short: as §1
# [37] = target: T37, TGFBR2 (Homo sapiens, UniProt P37173); details: read-out: %Inhibition by 10 μM SPA70
# T37 construct: purchased DiscoverX (Ambit Biosciences) KINOMEscan
# In short: as §1
# [38] = target: T38, TNK1 (Homo sapiens, UniProt Q13470); details: read-out: %Inhibition by 10 μM SPA70
# T38 construct: purchased DiscoverX (Ambit Biosciences) KINOMEscan
# In short: as §1
# [39] = target: T39, TSSK1B (Homo sapiens, UniProt Q9BXA7); details: read-out: %Inhibition by 10 μM SPA70
# T39 construct: purchased DiscoverX (Ambit Biosciences) KINOMEscan
# In short: as §1
# [40] = target: T40, ULK2 (Homo sapiens, UniProt Q8IYT8); details: read-out: %Inhibition by 10 μM SPA70
# T40 construct: purchased DiscoverX (Ambit Biosciences) KINOMEscan
# In short: as §1
# [41] = target: T41, YES (Homo sapiens, UniProt P07947); details: read-out: %Inhibition by 10 μM SPA70
# T41 construct: purchased DiscoverX (Ambit Biosciences) KINOMEscan
# In short: as §1
# T17 sequence (P06239 whole entry): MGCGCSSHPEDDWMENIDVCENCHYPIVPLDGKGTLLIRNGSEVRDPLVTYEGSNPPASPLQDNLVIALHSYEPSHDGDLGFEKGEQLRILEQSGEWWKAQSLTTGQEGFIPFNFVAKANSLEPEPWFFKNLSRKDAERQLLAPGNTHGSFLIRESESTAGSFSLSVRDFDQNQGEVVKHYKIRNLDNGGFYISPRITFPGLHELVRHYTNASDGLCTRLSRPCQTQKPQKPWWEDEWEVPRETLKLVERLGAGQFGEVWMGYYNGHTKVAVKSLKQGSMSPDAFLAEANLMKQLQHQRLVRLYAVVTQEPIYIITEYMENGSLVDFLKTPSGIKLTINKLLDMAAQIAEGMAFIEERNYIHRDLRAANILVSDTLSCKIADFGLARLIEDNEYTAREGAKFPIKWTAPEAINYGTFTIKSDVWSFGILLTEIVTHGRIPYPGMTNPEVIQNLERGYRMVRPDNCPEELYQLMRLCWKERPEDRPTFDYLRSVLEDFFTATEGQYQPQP
# T29 sequence (Q16512 whole entry): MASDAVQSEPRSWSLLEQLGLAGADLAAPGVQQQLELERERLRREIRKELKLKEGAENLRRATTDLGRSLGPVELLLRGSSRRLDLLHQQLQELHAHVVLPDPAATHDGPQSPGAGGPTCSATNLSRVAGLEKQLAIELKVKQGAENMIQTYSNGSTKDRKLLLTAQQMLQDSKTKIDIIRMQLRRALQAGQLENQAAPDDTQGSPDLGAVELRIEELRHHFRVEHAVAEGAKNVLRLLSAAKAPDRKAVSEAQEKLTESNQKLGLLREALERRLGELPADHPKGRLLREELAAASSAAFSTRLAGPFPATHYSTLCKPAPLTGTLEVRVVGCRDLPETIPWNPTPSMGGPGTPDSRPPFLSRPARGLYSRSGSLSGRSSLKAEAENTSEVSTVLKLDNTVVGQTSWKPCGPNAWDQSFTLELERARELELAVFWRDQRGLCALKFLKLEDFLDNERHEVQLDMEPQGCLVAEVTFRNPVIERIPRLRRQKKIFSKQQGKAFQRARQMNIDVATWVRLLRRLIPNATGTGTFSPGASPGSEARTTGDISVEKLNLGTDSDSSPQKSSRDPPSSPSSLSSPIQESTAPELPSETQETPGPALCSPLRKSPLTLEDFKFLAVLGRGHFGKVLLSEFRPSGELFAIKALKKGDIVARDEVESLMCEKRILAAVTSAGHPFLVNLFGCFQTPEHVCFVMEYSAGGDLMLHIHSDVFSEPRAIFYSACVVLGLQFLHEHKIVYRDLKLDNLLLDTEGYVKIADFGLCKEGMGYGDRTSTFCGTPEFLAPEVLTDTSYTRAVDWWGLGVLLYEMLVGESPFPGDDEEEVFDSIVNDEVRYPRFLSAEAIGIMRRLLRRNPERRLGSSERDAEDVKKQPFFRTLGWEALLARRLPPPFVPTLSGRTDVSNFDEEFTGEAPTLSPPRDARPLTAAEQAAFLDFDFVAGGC
# T21 sequence (Q02750 whole entry): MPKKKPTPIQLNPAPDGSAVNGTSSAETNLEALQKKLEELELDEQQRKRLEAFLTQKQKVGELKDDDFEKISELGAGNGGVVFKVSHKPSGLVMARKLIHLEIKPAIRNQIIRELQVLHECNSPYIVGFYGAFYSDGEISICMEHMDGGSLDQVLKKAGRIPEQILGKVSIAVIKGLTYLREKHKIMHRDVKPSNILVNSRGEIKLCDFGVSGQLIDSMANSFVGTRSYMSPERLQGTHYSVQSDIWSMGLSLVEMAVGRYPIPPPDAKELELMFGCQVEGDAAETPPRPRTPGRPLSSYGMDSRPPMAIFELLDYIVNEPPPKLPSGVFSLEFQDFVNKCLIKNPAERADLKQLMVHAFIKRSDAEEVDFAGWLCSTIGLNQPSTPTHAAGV
# T35 sequence (Q9H0K1 whole entry): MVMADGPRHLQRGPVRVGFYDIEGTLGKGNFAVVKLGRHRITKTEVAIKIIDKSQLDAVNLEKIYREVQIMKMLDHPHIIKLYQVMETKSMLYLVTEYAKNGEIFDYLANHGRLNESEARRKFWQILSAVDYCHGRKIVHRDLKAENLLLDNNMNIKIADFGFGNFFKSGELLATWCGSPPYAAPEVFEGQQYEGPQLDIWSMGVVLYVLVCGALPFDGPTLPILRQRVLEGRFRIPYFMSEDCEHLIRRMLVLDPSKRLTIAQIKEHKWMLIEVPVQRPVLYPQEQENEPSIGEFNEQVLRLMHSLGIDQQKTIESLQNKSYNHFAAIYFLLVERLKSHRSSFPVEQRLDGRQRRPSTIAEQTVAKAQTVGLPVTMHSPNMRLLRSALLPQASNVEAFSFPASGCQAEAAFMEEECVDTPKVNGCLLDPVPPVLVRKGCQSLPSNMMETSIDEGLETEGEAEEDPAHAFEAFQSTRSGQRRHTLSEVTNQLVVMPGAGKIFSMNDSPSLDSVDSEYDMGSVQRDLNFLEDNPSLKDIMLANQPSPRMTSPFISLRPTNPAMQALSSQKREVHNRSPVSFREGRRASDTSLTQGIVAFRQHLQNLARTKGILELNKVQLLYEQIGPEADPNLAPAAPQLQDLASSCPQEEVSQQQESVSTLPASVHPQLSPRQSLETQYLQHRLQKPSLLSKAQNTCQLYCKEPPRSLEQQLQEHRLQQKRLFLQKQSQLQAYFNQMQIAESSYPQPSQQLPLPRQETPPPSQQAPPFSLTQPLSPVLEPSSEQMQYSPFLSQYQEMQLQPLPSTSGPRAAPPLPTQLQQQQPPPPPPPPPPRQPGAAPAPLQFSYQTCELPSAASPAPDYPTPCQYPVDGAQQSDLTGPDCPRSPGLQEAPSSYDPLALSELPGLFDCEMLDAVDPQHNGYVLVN
# T30 sequence (Q04759 whole entry): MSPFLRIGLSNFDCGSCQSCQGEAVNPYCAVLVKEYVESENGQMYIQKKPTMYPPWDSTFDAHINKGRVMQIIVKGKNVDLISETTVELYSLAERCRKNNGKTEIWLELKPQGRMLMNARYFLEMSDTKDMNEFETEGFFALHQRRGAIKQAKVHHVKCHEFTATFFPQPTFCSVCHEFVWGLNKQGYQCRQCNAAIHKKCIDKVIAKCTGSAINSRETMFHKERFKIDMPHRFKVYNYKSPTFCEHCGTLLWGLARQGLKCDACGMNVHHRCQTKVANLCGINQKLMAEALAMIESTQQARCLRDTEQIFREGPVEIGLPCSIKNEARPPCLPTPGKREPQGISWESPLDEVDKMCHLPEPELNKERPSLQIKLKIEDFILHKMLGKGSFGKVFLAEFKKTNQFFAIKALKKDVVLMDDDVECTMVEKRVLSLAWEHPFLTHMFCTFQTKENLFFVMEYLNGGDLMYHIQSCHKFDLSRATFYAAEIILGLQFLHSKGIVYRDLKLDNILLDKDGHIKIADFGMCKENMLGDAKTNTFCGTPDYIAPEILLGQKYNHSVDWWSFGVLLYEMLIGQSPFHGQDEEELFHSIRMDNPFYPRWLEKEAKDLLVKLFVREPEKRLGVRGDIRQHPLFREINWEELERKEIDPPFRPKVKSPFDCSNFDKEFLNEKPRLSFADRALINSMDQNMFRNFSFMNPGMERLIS
# T40 sequence (Q8IYT8 whole entry): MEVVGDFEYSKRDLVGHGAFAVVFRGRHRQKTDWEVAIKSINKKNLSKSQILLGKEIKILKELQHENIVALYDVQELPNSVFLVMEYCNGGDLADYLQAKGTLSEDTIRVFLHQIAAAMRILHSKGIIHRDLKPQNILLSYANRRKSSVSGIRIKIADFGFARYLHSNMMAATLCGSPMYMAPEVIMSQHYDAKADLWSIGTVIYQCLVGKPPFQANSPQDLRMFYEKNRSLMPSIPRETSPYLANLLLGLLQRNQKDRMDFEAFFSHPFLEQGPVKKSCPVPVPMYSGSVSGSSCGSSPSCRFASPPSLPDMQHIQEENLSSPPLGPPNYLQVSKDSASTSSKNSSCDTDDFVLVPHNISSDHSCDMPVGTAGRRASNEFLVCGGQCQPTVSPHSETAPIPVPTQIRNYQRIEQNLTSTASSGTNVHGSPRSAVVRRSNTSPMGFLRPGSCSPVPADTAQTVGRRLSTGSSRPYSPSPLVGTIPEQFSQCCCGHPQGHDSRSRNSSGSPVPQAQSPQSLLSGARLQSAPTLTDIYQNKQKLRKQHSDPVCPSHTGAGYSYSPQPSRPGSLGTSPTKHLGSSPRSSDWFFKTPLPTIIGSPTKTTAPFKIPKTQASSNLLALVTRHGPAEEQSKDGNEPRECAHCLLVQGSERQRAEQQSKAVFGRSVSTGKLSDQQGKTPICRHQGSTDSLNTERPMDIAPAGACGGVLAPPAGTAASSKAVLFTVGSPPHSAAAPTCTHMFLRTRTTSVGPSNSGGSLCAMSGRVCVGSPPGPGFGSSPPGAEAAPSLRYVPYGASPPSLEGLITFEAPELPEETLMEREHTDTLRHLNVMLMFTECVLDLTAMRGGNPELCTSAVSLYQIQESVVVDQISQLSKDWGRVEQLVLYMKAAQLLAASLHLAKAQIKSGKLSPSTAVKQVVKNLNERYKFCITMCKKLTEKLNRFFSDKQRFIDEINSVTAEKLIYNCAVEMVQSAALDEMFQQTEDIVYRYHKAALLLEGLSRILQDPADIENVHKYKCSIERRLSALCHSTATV
# T5 sequence (P78368 whole entry): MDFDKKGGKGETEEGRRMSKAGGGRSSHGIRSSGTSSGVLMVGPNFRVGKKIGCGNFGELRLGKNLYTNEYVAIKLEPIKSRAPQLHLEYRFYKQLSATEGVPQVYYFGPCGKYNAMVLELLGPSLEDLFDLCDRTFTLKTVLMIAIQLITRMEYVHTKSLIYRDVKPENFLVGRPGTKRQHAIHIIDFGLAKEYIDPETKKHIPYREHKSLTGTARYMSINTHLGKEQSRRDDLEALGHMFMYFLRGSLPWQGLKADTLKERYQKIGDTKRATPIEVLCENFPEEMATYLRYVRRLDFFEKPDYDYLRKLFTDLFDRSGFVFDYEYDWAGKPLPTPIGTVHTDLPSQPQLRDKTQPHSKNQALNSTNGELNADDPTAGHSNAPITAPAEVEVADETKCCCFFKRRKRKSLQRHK
structure (smiles),measurement,setting,value
COc1ccc(OC)c(-n2nnc(S(=O)(=O)c3ccc(C(C)(C)C)cc3)c2C)c1 [SPA70],inhibition at 10 µM,[1],11%
same,inhibition at 10 µM,[2],0%
same,inhibition at 10 µM,[3],20%
same,inhibition at 10 µM,[4],24%
same,%Inhibition by 10 μM SPA70,[5],0%
same,inhibition at 10 µM,[6],10%
same,inhibition at 10 µM,[7],0%
same,inhibition at 10 µM,[8],0%
same,inhibition at 10 µM,[9],0%
same,inhibition at 10 µM,[10],26%
same,inhibition at 10 µM,[11],0%
same,%Inhibition by 10 μM SPA70,[12],0%
same,inhibition at 10 µM,[13],0%
same,inhibition at 10 µM,[14],42%
same,inhibition at 10 µM,[15],0%
same,inhibition at 10 µM,[16],0%
same,inhibition at 10 µM,[17],2%
same,inhibition at 10 µM,[18],13%
same,inhibition at 10 µM,[19],0%
same,inhibition at 10 µM,[20],0%
same,inhibition at 10 µM,[21],11%
same,inhibition at 10 µM,[22],0%
same,inhibition at 10 µM,[23],0%
same,inhibition at 10 µM,[24],3%
same,inhibition at 10 µM,[25],4%
same,inhibition at 10 µM,[26],36%
same,inhibition at 10 µM,[27],0%
same,%Inhibition by 10 μM SPA70,[28],not inhibited
same,inhibition at 10 µM,[28]; read-out: %Inhibition by 10 μM SPA70,0%
same,inhibition at 10 µM,[29],0%
same,inhibition at 10 µM,[30],4%
same,inhibition at 10 µM,[31],0%
same,inhibition at 10 µM,[32],0%
same,inhibition at 10 µM,[33],40%
same,inhibition at 10 µM,[34],0%
same,inhibition at 10 µM,[35],0%
same,%Inhibition by 10 μM SPA70,[36],8%
same,inhibition at 10 µM,[37],1%
same,inhibition at 10 µM,[38],0%
same,inhibition at 10 µM,[39],0%
same,inhibition at 10 µM,[40],0%
same,inhibition at 10 µM,[41],2%
